The values that follow come from patent publication US9814699B2, “Chemical compounds” (Janssen Pharmaceuticals, Inc., priority 2009, dated 2017).

The subject of test [1] is HCV genotype 1b subgenomic replicon. Briefly: HCV replicon assay, genotype 1b subgenomic replicon (ET cell line, luciferase). It counts as cell-based. The note with it: Hepatitis C virus; genotype 1b replicon ET cell line, luciferase activity measured 48 hours later; read-out: Replicon 1B pEC50 (converted). The procedure:
(§1) Protocol for Testing and Data Analysis of Compounds in the HCV Replicon Assay
(§2) Compounds were assayed for activity against HCV using the genotype 1a and 1b subgenomic replicon model systems. Stable cell lines bearing the genotype 1a and 1b replicons were used for screening of compounds. Both replicons are bicistronic and contain the firefly luciferase gene. The ET cell line is stably transfected with RNA transcripts harboring a I389luc-ubi-neo/NS3-3′/ET replicon with firefly luciferase-ubiquitin-neomycin phosphotransferase fusion protein and EMCV-IRES driven NS3-5B polyprotein containing the cell culture adaptive mutations (E1202G; T1280I; K1846T) (Krieger at al, 2001 and unpublished). The genotype 1a replicon is a stable cell line licensed from Apath LLC, modified to contain the firefly luciferase gene. The cells were grown in DMEM, supplemented with 10% fetal calf serum, 2 mM Glutamine, Penicillin (100 IU/mL)/Streptomycin (100 μg/mL), 1× nonessential amino acids, and 250-500 μg/mL G418 (“Geneticin”). They were all available through Life Technologies (Bethesda, Md.). The cells were plated at 5×10^3 cells/well in 384 well plates containing compounds. The final concentration of compounds ranged between 0.03 pM to 50 μm and the final DMSO concentration of 0.5-1%.
(§3) Luciferase activity was measured 48 hours later by adding a Steady glo reagent (Promega, Madison, Wis.). Percent inhibition of replication data was plotted relative to no compound control. Under the same condition, cytotoxicity of the compounds was determined using cell titer glo (Promega, Madison, Ws). EC50s were determined from an 11 point dose response curve using 3-4-fold serial dilution for each compound, which spans a concentration range >1000 fold. The level of inhibition for each compound was determined with Activity Base or with BioAssay plus the Excel XC50 module. Percent inhibition was determined with the following equation where the cross-talk corrected value is the value from the test well, the compound positive control mean is the average value of the wells with no compound present, and the DMSO negative control mean is the average value of the wells with DMSO but no cells present.
(§4) [formula] These normalized values are exported to EC50 where they are plotted against the molar compound concentrations using the standard four parameter logistic equation: […]

For test [2], the system named is HCV genotype 1a subgenomic replicon. Briefly: HCV replicon assay, genotype 1a subgenomic replicon (luciferase). The class given is cell-based. To be noted: Hepatitis C virus; genotype 1a replicon stable cell line, luciferase activity measured 48 hours later; read-out: Replicon 1A pEC50 (converted). Here is the method:
as §1, §2, §3, §4

In the case of `COC(=O)N[C@H](C(=O)N1CCC[C@H]1c1nc(-c2ccc(-c3ccc(-c4c[nH]c([C@@H]5CC6(CN5C(=O)[C@@H](NC(=O)OC)C(C)C)SCCS6)n4)cc3)cc2)c[nH]1)C(C)C` [Example 12, methyl [(1S)-2-methyl-1-({(2S)-2-[4-(4′-{2-[(8S)-7-((2S)-3-methyl-2-{[(methyloxy)carbonyl]amino}butanoyl)-1,4-dithia-7-azaspiro[4.4]non-8-yl]-1H-imidazol-4-yl}-4-biphenylyl)-1H-imidazol-2-yl]-1-pyrrolidinyl}carbonyl)propyl]carbamate], the EC50 in test [1] is 0.00398 nM; in test [2], 0.0794 nM.
On the same counts, the results for `CC[C@H](NC(=O)OC)C(=O)N1CC2(C[C@H]1c1nc(-c3ccc(-c4ccc(-c5c[nH]c([C@@H]6CCCN6C(=O)[C@@H](NC(=O)OC)C(C)C)n5)cc4)cc3)c[nH]1)SCCS2` [Example 13, methyl[(1S)-2-methyl-1-({(2S)-2-[4-(4′-{2-[(8S)-7-((2S)-2-{[(methyloxy)carbonyl]amino}butanoyl)-1,4-dithia-7-azaspiro[4.4]non-8-yl]-1H-imidazol-4-yl}-4-biphenylyl)-1H-imidazol-2-yl]-1-pyrrolidinyl}carbonyl)propyl]carbamate] are 0.00398 nM and 0.0631 nM.
For `COC(=O)NCC(=O)N1CC2(C[C@H]1c1ncc(-c3ccc(-c4ccc(-c5cnc([C@@H]6CCCN6C(=O)[C@@H](NC(=O)OC)C(C)C)[nH]5)cc4)cc3)[nH]1)SCCS2` [Example 14, methyl [(1S)-2-methyl-1-({(2S)-2-[4-(4′-{2-[(8S)-7-({[(methyloxy)carbonyl]amino}acetyl)-1,4-dithia-7-azaspiro[4.4]non-8-yl]-1H-imidazol-4-yl}-4-biphenylyl)-1H-imidazol-2-yl]-1-pyrrolidinyl}carbonyl)propyl]carbamate], the EC50 in test [1] was 0.00501 nM; in test [2], 0.631 nM.
Regarding `COC(=O)N[C@H](C(=O)N1CC2(CCOCC2)CC1c1ncc(-c2ccc(-c3ccc(-c4cnc([C@@H]5CCCN5C(=O)[C@@H](NC(=O)OC)C(C)C)[nH]4)cc3)cc2)[nH]1)C(C)C` (stereo partly drawn) [Example 15, methyl [(1S)-2-methyl-1-({(2S)-2-[4-(4′-{2-[2-((2S)-3-methyl-2-{[(methyloxy)carbonyl]amino}butanoyl)-8-oxa-2-azaspiro[4.5]dec-3-yl]-1H-imidazol-4-yl}-4-biphenylyl)-1H-imidazol-2-yl]-1-pyrrolidinyl}carbonyl)propyl]carbamate], the EC50 is 0.0158 nM in test [1] and 0.0631 nM in test [2].
As for `COC(=O)N[C@H](C(=O)N1CC2(CCS(=O)(=O)CC2)CC1c1ncc(-c2ccc(-c3ccc(-c4cnc([C@@H]5CCCN5C(=O)[C@@H](NC(=O)OC)C(C)C)[nH]4)cc3)cc2)[nH]1)C(C)C` (stereo partly drawn) [Example 16, methyl [(1S)-2-methyl-1-({(2S)-2-[4-(4′-{2-[2-((2S)-3-methyl-2-{[(methyloxy)carbonyl]amino}butanoyl)-8,8-dioxido-8-thia-2-azaspiro[4.5]dec-3-yl]-1H-imidazol-4-yl}-4-biphenylyl)-1H-imidazol-2-yl]-1-pyrrolidinyl}carbonyl)propyl]carbamate], the figures for the EC50 in test [1] and in test [2] were 0.0398 nM and 0.398 nM, respectively.
The matching figures for `COC(=O)N[C@H](C(=O)N1CCC[C@H]1c1ncc(-c2ccc(-c3ccc(-c4cnc([C@@H]5CC6(CCC(F)(F)CC6)CN5C(=O)[C@@H](NC(=O)OC)C(C)C)[nH]4)cc3)cc2)[nH]1)C(C)C` [Example 17, methyl [(1S)-1-({(2S)-2-[4-(4′-{2-[8,8-difluoro-2-((2S)-3-methyl-2-{[(methyloxy)carbonyl]amino}butanoyl)-2-azaspiro[4.5]dec-3-yl]-1H-imidazol-4-yl}-4-biphenylyl)-1H-imidazol-2-yl]-1-pyrrolidinyl}carbonyl)-2-methylpropyl]carbamate]: 0.00251 nM and 0.0398 nM.
On the same counts, the results for `COC(=O)N[C@H](C(=O)N1CC2(CCOCC2)C[C@H]1c1nc(-c2ccc(-c3ccc(-c4cnc([C@@H]5CC6(CCOCC6)CN5C(=O)[C@@H](NC(=O)OC)C(C)C)[nH]4)cc3)cc2)c[nH]1)C(C)C` [Example 18, dimethyl (4,4′-biphenyldiylbis{1H-imidazole-4,2-diyl(3S)-8-oxa-2-azaspiro[4.5]decane-3,2-diyl[(2S)-3-methyl-1-oxo-1,2-butanediyl]})biscarbamate] are 0.0126 nM and 0.02 nM.
On the same counts, the results for `COC(=O)N[C@H](C(=O)N1CC2(CCN(C(=O)OC(C)(C)C)CC2)CC1c1ncc(-c2ccc(-c3ccc(-c4cnc([C@@H]5CCCN5C(=O)[C@@H](NC(=O)OC)C(C)C)[nH]4)cc3)cc2)[nH]1)C(C)C` (stereo partly drawn) [Example 19, 1,1-dimethylethyl 2-{N-[(methyloxy)carbonyl]-L-valyl}-3-(4-{4′-[2-((2S)-1-{N-[(methyloxy)carbonyl]-L-valyl}-2-pyrrolidinyl)-1H-imidazol-4-yl]-4-biphenylyl}-1H-imidazol-2-yl)-2,8-diazaspiro[4.5]decane-8-carboxylate] are 0.0398 nM and 10 nM.
Consider `COC(=O)N[C@H](C(=O)N1CC2(CCNCC2)CC1c1ncc(-c2ccc(-c3ccc(-c4cnc([C@@H]5CCCN5C(=O)[C@@H](NC(=O)OC)C(C)C)[nH]4)cc3)cc2)[nH]1)C(C)C` (stereo partly drawn) [Example 20, methyl [(1S)-2-methyl-1-({(2S)-2-[4-(4′-{2-[2-((2S)-3-methyl-2-{[(methyloxy)carbonyl]amino}butanoyl)-2,8-diazaspiro[4.5]dec-3-yl]-1H-imidazol-4-yl}-4-biphenylyl)-1H-imidazol-2-yl]-1-pyrrolidinyl}carbonyl)propyl]carbamate], for which the EC50 is 1.58 nM in test [1] and more than 31.6 nM in test [2].
On to `COC(=O)N[C@H](C(=O)N1CC2(CCN(C(C)=O)CC2)CC1c1ncc(-c2ccc(-c3ccc(-c4cnc([C@@H]5CCCN5C(=O)[C@@H](NC(=O)OC)C(C)C)[nH]4)cc3)cc2)[nH]1)C(C)C` (stereo partly drawn) [Example 21, methyl [(1S)-1-({(2S)-2-[4-(4′-{2-[8-acetyl-2-((2S)-3-methyl-2-{[(methyloxy)carbonyl]amino}butanoyl)-2,8-diazaspiro[4.5]dec-3-yl]-1H-imidazol-4-yl}-4-biphenylyl)-1H-imidazol-2-yl]-1-pyrrolidinyl}carbonyl)-2-methylpropyl]carbamate], for which the EC50 is 0.2 nM in test [1] and 10 nM in test [2].
The matching figures for `COC(=O)N[C@H](C(=O)N1CC2(CCN(C(=O)OC)CC2)CC1c1ncc(-c2ccc(-c3ccc(-c4cnc([C@@H]5CCCN5C(=O)[C@@H](NC(=O)OC)C(C)C)[nH]4)cc3)cc2)[nH]1)C(C)C` (stereo partly drawn) [Example 22, methyl 2-{N-[(methyloxy)carbonyl]-L-valyl}-3-(4-{4′-[2-((2S)-1-{N-[(methyloxy)carbonyl]-L-valyl}-2-pyrrolidinyl)-1H-imidazol-4-yl]-4-biphenylyl}-1H-imidazol-2-yl)-2,8-diazaspiro[4.5]decane-8-carboxylate]: 0.0158 nM and 0.794 nM.
For `COC(=O)N[C@H](C(=O)N1CC2(CC1c1ncc(-c3ccc(-c4ccc(-c5cnc([C@@H]6CCCN6C(=O)[C@@H](NC(=O)OC)C(C)C)[nH]5)cc4)cc3)[nH]1)CN(C(=O)OC(C)(C)C)C2)C(C)C` (stereo partly drawn) [Example 23, 1,1-dimethylethyl 6-{N-[(methyloxy)carbonyl]-L-valyl}-7-(4-{4′-[2-((2S)-1-{N-[(methyloxy)carbonyl]-L-valyl}-2-pyrrolidinyl)-1H-imidazol-4-yl]-4-biphenylyl}-1H-imidazol-2-yl)-2,6-diazaspiro[3.4]octane-2-carboxylate], the EC50 was 0.01 nM in test [1] and 1.26 nM in test [2].
